According to patent US20220041597A1 (FORMA Therapeutics, Inc., priority 2018, published 2022):

Biological target: USP9X (Homo sapiens, UniProt Q93008)
Test: Biochemical Assay for USP9X Inhibition (Ub-Rh110 fluorescence)
Conditions: Ub-Rh110 25 nM, 30 min preincubation
Protocol: Concentration and incubation times were optimized for the maximal signal-to-background while maintaining initial velocity conditions at a fixed substrate concentration (<<Km). […] To assay plates (pre-stamped with compound) was added 3 μL 2× Enzyme. The enzyme was preincubated for 30 minutes and then treated with 3 μL of 2× Substrate. […] The slope (best fit linear regression) of the five reads was used to normalize for inhibition. For all assays, data are reported as percent inhibition compared with control wells based on the following equation: […], wherein FLU is measured Fluorescence, AveLow is average Fluorescence of no enzyme control (n=64), and AveHigh is average Fluorescence of DMSO control (n=64). IC50 values are determined by curve fitting of the standard 4 parameter logistic fitting algorithm included in the Activity Base software package: IDBS XE Designer Model205. Data are fitted using the Levenburg Marquardt algorithm.

USP9X, sequence (Q93008 whole entry): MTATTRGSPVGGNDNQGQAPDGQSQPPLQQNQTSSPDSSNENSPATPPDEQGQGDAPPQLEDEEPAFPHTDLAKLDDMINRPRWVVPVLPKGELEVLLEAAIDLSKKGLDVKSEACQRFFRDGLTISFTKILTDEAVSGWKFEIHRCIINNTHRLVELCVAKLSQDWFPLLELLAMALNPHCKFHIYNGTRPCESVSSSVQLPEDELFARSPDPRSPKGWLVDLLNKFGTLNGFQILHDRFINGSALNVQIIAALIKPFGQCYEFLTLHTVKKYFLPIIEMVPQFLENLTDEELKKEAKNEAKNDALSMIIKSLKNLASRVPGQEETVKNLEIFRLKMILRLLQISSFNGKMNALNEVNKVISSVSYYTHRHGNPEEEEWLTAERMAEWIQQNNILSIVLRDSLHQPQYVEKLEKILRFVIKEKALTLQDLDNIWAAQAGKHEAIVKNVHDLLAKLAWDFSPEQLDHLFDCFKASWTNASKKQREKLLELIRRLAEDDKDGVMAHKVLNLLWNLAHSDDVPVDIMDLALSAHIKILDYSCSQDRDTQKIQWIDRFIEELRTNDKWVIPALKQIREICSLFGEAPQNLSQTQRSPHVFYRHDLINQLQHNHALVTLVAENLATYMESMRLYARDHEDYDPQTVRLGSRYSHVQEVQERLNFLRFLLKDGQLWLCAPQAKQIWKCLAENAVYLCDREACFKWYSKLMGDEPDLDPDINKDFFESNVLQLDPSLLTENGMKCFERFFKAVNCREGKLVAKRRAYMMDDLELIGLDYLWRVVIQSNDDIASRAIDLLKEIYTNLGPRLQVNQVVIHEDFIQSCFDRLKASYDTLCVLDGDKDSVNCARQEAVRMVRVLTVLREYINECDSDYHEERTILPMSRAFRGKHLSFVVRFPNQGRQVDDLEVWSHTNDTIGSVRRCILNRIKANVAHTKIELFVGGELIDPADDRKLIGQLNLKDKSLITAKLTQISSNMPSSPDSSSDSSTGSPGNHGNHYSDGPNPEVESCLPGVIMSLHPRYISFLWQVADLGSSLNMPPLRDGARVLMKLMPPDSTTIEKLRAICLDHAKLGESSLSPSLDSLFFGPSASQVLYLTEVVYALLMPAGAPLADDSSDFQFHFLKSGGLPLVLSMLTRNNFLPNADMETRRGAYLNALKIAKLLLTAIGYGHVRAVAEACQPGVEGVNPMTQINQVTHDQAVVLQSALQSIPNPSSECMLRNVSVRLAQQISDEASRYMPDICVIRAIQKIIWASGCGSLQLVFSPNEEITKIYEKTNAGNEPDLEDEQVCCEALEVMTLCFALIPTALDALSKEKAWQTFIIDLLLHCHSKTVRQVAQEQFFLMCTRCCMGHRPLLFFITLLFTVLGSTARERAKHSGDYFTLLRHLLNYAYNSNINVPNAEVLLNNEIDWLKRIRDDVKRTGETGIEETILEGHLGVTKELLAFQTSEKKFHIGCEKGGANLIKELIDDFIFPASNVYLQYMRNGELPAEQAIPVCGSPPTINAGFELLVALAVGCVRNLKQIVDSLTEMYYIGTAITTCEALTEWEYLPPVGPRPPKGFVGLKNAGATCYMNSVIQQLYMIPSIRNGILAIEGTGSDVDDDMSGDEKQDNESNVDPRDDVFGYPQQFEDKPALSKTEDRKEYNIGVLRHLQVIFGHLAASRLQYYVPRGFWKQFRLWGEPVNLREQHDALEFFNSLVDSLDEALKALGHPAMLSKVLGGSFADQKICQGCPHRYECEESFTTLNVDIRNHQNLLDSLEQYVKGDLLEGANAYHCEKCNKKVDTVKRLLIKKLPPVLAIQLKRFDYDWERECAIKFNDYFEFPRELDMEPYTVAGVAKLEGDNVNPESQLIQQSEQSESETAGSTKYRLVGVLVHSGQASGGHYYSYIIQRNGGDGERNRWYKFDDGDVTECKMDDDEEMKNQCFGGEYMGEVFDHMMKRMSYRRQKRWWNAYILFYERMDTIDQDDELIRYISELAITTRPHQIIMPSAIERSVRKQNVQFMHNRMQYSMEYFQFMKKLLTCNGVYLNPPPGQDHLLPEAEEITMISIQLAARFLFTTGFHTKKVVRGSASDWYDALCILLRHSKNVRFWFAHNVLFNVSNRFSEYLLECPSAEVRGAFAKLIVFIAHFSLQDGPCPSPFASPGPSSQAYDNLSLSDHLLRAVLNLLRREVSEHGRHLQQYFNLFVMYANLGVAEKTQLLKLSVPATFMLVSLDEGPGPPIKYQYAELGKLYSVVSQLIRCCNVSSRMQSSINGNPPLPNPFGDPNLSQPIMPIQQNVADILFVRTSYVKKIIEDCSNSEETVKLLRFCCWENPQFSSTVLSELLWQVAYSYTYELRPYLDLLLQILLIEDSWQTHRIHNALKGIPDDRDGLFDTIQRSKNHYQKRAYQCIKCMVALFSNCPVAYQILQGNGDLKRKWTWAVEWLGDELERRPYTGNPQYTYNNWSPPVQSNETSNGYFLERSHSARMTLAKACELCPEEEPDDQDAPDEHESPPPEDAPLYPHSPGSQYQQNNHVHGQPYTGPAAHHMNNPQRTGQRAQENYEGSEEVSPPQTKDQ

In the case of `O=S(=O)(c1ccc(-n2ccnc2)cc1)N1Cc2cnc(C(O)c3ccccc3)cc2C1` (centres unmarked) [Example 19], the IC50 (USP9X 0.025 nM) is reported as > 25000 nM.

In the case of `O=S(=O)(C1CCN(c2nccs2)CC1)N1Cc2cnc(C(O)c3ccccc3)cc2C1` (centres unmarked) [Example 24], the IC50 (USP9X 0.025 nM) is reported as > 25000 nM.

With `O=S(=O)(C1CCN(c2ncco2)CC1)N1Cc2cnc(C(O)c3ccccc3)cc2C1` (centres unmarked) [Example 32, (2-{[1-(1,3-oxazol-2-yl)piperidin-4-yl]sulfonyl}-1H,2H,3H-pyrrolo[3,4-c]pyridine-6-yl)(phenyl)methanol] the IC50 (USP9X 0.025 nM) was > 25000 nM.

For `CN1CCC(Oc2cccc(C(O)c3cc4c(cn3)CN(S(=O)(=O)c3ccc(-c5ncco5)cc3)C4)c2)CC1` (single isomer, unassigned) [Example 79], the IC50 (USP9X […]) was 1 to 100 nM.

With `CN1CCC(Oc2cccc(C(O)c3cc4c(cn3)CN(S(=O)(=O)c3ccc(-c5ncco5)cc3)C4)c2)CC1` (single isomer, unassigned) [Example 78] the IC50 (USP9X 0.025 nM) was 1 to 100 nM.
